Results as given in patent US20200031811A1, “SUBSTITUTED MONO- AND POLYAZANAPHTHALENE DERIVATIVES AND THEIR USE” (Basilea Pharmaceutica International AG, priority 2015, published 2020).
Where a name gives a salt, the structure may show the parent alone.

Legend:
[1] = tested on: human pancreatic cancer cell line MiaPaCa2 (ATCC CRL-1420); test: Cell growth assay (CellTiterGlo, 72 hours); type: cell-based; details: for IC50: MIA PaCa-2, MiaPaCa2 cells, 72 hours, read-out: IC50 MiaPaCa; for inhibition at 100 µM: MIA PaCa-2, at 100 μM; for inhibition at 100 µM / inhibition at 50 µM: read-out: Inhibition of MiaPaCa growth at indicated concentration; for inhibition at 50 µM: MIA PaCa-2, at 50 μM
Description: The inhibition of cell growth by the compounds was tested by exposing the human pancreatic cancer cell line MiaPaCa2 (ATCC CRL-1420) to the compounds. The assay was performed in 384 well clear bottom white microtiter plates (Greiner #781098). Each well was seeded with 10^3 cells in 20 μl of Dulbecco's modified Eagle's medium (Sigma D6796) supplied with 10% fetal calf scrum (Sigma F7524), 2.5% horse serum (Sigma H0146), 1% Penicillin-Streptomycin (Sigma P0781), 1% MEM nonessential amino acid solution 100× (Sigma M71459) and 1% 200 mM L-Glutamine (Sigma G7513) culture medium. After overnight incubation at 37° C. in 5% CO2 the compounds were added in the following concentrations: 100, 50, 20, 10, 5, 2, 1, 0.5, 0.2 and 0.1 μM. Each compound concentration was tested in quadruplicate. The incubation was then continued for 72 hours. After 72 hours the growth of the cells was assessed by the addition of the CellTiterGlo reagent (Promega G9242) as instructed by the provider. The luminescent signal was recorded on a SpectraMax M2 microplate reader. The signal obtained in wells containing cells cultivated in the absence of compound was set to 100% growth after subtracting the signal obtained in medium only wells. The % growth in each well was calculated by subtracting the medium only value and dividing through the 100% growth value. The IC50 for cell growth, the concentration of compound at which cell growth was reduced to 50%, was calculated with the GraFit6 software (Erythacus software).

MNK1 = molecular target: T1, MNK1 (Homo sapiens, UniProt Q9BUB5); test: MNK inhibition assay (Z-Lyte kinase assay, Ser/Thr 7 peptide); type: biochemical; details: for IC50: recombinant GST-MNK1, 3 hours at 31° C.; for inhibition at 1 µM / inhibition at 10 µM: read-out: Inhibition of MNK1 activity at indicated concentration
T1 construct: purchased Life Technologies or Carna Biosciences PV6023 or 02-145; host or cells: baculovirus infected insect cells
T1 sequence (Q9BUB5 whole entry): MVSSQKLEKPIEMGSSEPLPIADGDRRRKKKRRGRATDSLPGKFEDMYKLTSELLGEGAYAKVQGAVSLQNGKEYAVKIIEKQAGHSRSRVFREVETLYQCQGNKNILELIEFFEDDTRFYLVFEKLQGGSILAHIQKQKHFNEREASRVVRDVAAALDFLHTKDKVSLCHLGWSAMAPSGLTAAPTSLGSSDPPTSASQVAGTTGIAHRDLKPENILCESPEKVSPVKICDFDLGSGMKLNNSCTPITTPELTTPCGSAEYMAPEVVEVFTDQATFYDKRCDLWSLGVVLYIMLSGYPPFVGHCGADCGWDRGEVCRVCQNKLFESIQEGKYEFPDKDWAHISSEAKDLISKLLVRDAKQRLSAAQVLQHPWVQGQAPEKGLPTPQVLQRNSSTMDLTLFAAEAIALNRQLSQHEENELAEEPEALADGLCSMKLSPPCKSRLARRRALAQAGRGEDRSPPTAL
Description: For the measurement of the activity of the MNK1 kinase the Z-Lyte kinase assay system was used. The kinase activity of MNK1 can be quantified with the Z-Lyte kinase assay kit Ser/Thr 7 peptide (Life Technologies PV3180). The kit was utilized according to the instructions of the provider. A recombinant GST-MNK1 fusion protein produced in and purified from baculovirus infected insect cells was used as enzyme source (GST-MNK1 Life Technologies PV6023 or Carna Biosciences 02-145). It was verified that both sources of the MNK1 enzyme gave similar IC50 values with several compounds. The MNK1 enzyme assay was performed in 384 well round bottom black microtiter plates (Corning 3676). The kinase reaction was performed for 3 hours at 31° C. As instructed by the provider of the kit the amount of enzyme was chosen such that ˜30% of the substrate peptide was phosphorylated in control wells containing buffer only. The MNK1 inhibiting activity of compounds was tested by adding the compounds to the kinase reaction at a concentration of 10000, 5000, 2000, 1000, 500, 200, 100, 50 nM. Compounds with strong MNK1 inhibition were tested at 20, 10, 5, 2, 1 and 0.5 nM in addition. Each compound concentration was tested at least in duplicate. The % phosphorylation of the substrate peptide at each compound concentration was calculated as described in the assay manual. The fluorescent signals were recordes on Biotek Cytation 3 microplate reader. The IC50, the concentration that reduced substrate phosphorylation by 50% if compared to buffer only wells, was calculated with the Grafit 6 software (Erythacus software).

| Compound | IC50 [1] [nM] | IC50 (MNK1) [nM] | also measured |
| --- | --- | --- | --- |
| NC1CCN(Cc2ccc3cncc(-c4cc5ccccc5o4)c3c2)CC1 [Example 1, 1-[[4-(Benzofuran-2-yl)-6-isoquinolyl]methyl]piperidin-4-amine] | 3540 | 110 | – |
| Nc1ccc(-c2cncc3ccc(CN4CCC(N)CC4)cc23)cc1 [Example 2] | 34600 | 93 | – |
| Nc1cccc(-c2cncc3ccc(CN4CCC(N)CC4)cc23)c1 [Example 3] | 20600 | 847 | – |
| N#Cc1ccc(-c2cncc3ccc(CN4CCC(N)CC4)cc23)cc1 [Example 4] | 26000 | 334 | – |
| N#Cc1cccc(-c2cncc3ccc(CN4CCC(N)CC4)cc23)c1 [Example 5] | 32600 | – | inhibition at 1 µM (MNK1): 39% |
| NC1CCN(Cc2ccc3cncc(-c4cc5ccccc5[nH]4)c3c2)CC1 [Example 6] | 6050 | 917 | – |
| NC1CCN(Cc2ccc3cncc(-c4ccccc4)c3c2)CC1 [Example 7] | 17500 | 744 | – |
| N#Cc1ccccc1-c1cncc2ccc(CN3CCC(N)CC3)cc12 [Example 8] | – | – | inhibition at 10 µM (MNK1): 95% |
| NC1CCN(Cc2ccc3cncc(-c4ccc(Cl)cc4)c3c2)CC1 [Example 9] | 10800 | 258 | – |
| NC1CCN(Cc2ccc3cncc(-c4cccc(Cl)c4)c3c2)CC1 [Example 10] | 11700 | 325 | – |
| COC(=O)c1ccc(-c2cncc3ccc(CN4CCC(N)CC4)cc23)cc1 [Example 11] | 10100 | – | inhibition at 1 µM (MNK1): 33% |
| COC(=O)c1cccc(-c2cncc3ccc(CN4CCC(N)CC4)cc23)c1 [Example 12] | – | – | inhibition at 100 µM [1]: 60%; inhibition at 10 µM (MNK1): 92% |
| NC1CCN(Cc2ccc3cncc(-c4ccncc4)c3c2)CC1 [Example 13] | 24300 | 285 | – |
| NC1CCN(Cc2ccc3cncc(-c4cccnc4)c3c2)CC1 [Example 14] | – | – | inhibition at 50 µM [1]: 52%; inhibition at 1 µM (MNK1): 34% |
| NC1CCN(Cc2ccc3cncc(-c4ccccn4)c3c2)CC1 [Example 15] | – | 3960 | – |
| Nc1cc(-c2cncc3ccc(CN4CCC(N)CC4)cc23)ccn1 [Example 16] | – | 1910 | inhibition at 100 µM [1]: 67% |
| Nc1ccc(-c2cncc3ccc(CN4CCC(N)CC4)cc23)cn1 [Example 17] | – | – | inhibition at 50 µM [1]: 61%; inhibition at 10 µM (MNK1): 100% |
| CC(=O)Nc1ccc(-c2cncc3ccc(CN4CCC(N)CC4)cc23)cc1 [Example 18, N-[4-[6-[(4-Amino-1-piperidyl)methyl]-4-isoquinolyl]phenyl]acetamide] | 30400 | 459 | – |
| CC(=O)Nc1cccc(-c2cncc3ccc(CN4CCC(N)CC4)cc23)c1 [Example 19] | 29700 | – | inhibition at 1 µM (MNK1): 39% |
| NC(=O)c1ccc(-c2cncc3ccc(CN4CCC(N)CC4)cc23)cc1 [Example 20, 4-[6-[(4-Amino-1-piperidyl)methyl]-4-isoquinolyl]benzamide] | – | – | inhibition at 100 µM [1]: 62%; inhibition at 1 µM (MNK1): 45% |
| NC(=O)c1cccc(-c2cncc3ccc(CN4CCC(N)CC4)cc23)c1 [Example 21] | – | – | inhibition at 100 µM [1]: 64%; inhibition at 1 µM (MNK1): 49% |
| O=C1CN(Cc2ccc3cncc(-c4ccc(O)cc4)c3c2)CCN1 [Example 22, 4-[[4-(4-Hydroxyphenyl)-6-isoquinolyl]methyl]piperazin-2-one] | – | 662 | inhibition at 100 µM [1]: 69% |
| Oc1ccc(-c2cncc3ccc(CN4CCC(O)CC4)cc23)cc1 [Example 23] | 30600 | 2360 | – |
| NCCNCc1ccc2cncc(-c3ccc(O)cc3)c2c1 [Example 24] | 45500 | 926 | – |
| NCCCNCc1ccc2cncc(-c3ccc(O)cc3)c2c1 [Example 25] | 14600 | 166 | – |
| Oc1ccc(-c2cncc3ccc(CN4CCOCC4)cc23)cc1 [Example 26] | 54300 | – | inhibition at 1 µM (MNK1): 40% |
| NC1CCN(C(=O)c2ccc3cncc(-c4ccc(O)cc4)c3c2)CC1 [Example 28, (4-Amino-1-piperidyl)-[4-(4-hydroxyphenyl)-6-isoquinolyl]methanone] | 47600 | 353 | – |
| NC1CCN(Cc2ccc3cncc(-c4ccc(C(=O)O)cc4)c3c2)CC1 [Example 29, 4-[6-[(4-Amino-1-piperidyl)methyl]-4-isoquinolyl]benzoic acid] | – | – | inhibition at 1 µM (MNK1): 43% |
| NC1CCN(Cc2ccc3cncc(-c4cccc(C(=O)O)c4)c3c2)CC1 [Example 30] | – | – | inhibition at 1 µM (MNK1): 34% |
| O=c1[nH]cc(-c2cc3ccccc3o2)c2cc(NCc3ccncc3)ccc12 [Example 89, 4-(Benzofuran-2-yl)-6-(4-pyridylmethylamino)-2H-isoquinolin-1-one] | – | – | inhibition at 10 µM (MNK1): 35% |

The next lines start with results.

| IC50 [1] [nM] | IC50 (MNK1) [nM] | Compound | also measured |
| --- | --- | --- | --- |
| 2190 | 484 | NC1CCN(Cc2ccc3cncc(-c4ccc(NC(=O)Nc5ccccc5)cc4)c3c2)CC1 [Example 31, 1-[4-[6-[(4-Amino-1-piperidyl)methyl]-4-isoquinolyl]phenyl]-3-phenyl-urea] | – |
| 8400 | 2410 | NC1CCN(Cc2ccc3cncc(-c4cccc(NC(=O)Nc5ccccc5)c4)c3c2)CC1 [Example 32] | – |
| – | 866 | NC(=O)Nc1ccc(-c2cncc3ccc(CN4CCC(N)CC4)cc23)cc1 [Example 33, [4-[6-[(4-Amino-1-piperidyl)methyl]-4-isoquinolyl]phenyl]urea] | – |
| – | 1090 | NC(=O)Nc1cccc(-c2cncc3ccc(CN4CCC(N)CC4)cc23)c1 [Example 34] | – |
| 11800 | – | NCCCCNCc1ccc2cncc(-c3ccc(O)cc3)c2c1 [Example 35, 4-[6-[(4-Aminobutylamino)methyl]-4-isoquinolyl]phenol] | inhibition at 1 µM (MNK1): 56% |
| 20200 | 99 | CN(CCCN)Cc1ccc2cncc(-c3ccc(O)cc3)c2c1 [Example 36] | – |
| – | 336 | NC1CCC(NCc2ccc3cncc(-c4ccc(O)cc4)c3c2)CC1 (stereo not drawn) [Example 37] | inhibition at 50 µM [1]: 57% |
| 25000 | 351 | NC1CCCC(NCc2ccc3cncc(-c4ccc(O)cc4)c3c2)C1 (stereo not drawn) [Example 38] | – |
| – | 496 | Oc1ccc(-c2cncc3ccc(CNC4CCCNC4)cc23)cc1 (stereo not drawn) [Example 39] | – |
| – | 135 | c1cncc(NCc2ccc3cncc(-c4cc5ccccc5o4)c3c2)c1 [Example 60, N-[[4-(Benzofuran-2-yl)-6-isoquinolyl]methyl]pyridin-3-amine] | – |
| – | 2140 | Clc1cc(NCc2ccc3cncc(-c4cc5ccccc5o4)c3c2)ccn1 [Example 62] | – |
| – | 68 | Fc1cc(NCc2ccc3cncc(-c4cc5ccccc5o4)c3c2)ccn1 [Example 63] | – |
| – | 157 | COc1cc(NCc2ccc3cncc(-c4cc5ccccc5o4)c3c2)ccn1 [Example 65] | – |
| 2210 | – | N[C@H]1CC[C@@H](Nc2ccc3cncc(-c4cc5ccccc5o4)c3c2)CC1 [Example 81, N4-[4-(Benzofuran-2-yl)-6-isoquinolyl]cyclohexane-1,4-diamine] | – |
| 2170 | – | c1ccc2oc(-c3cncc4ccc(NC5CCNCC5)cc34)cc2c1 [Example 82] | – |
| – | 171 | N[C@H]1CC[C@H](Nc2ccc3c(=O)[nH]cc(-c4ccccc4)c3c2)CC1 [Example 88] | – |
| – | 1060 | O=c1[nH]cc(-c2ccccc2)c2cc(NCc3ccncc3)ccc12 [Example 90] | – |
| – | 24 | c1ccc2oc(-c3cncc4ccc(CNc5ccnnc5)cc34)cc2c1 [Example 131, N-[[4-(benzofuran-2-yl)-6-isoquinolyl]methyl]pyridazin-4-amine] | – |
| – | 57 | Nc1cc[n+](Cc2ccc3cnc(N)c(-c4cc5ccccc5o4)c3c2)cc1 [Example 166, 6-[(4-Aminopyridin-1-ium-1-yl)methyl]-4-(benzofuran-2-yl)isoquinolin-3-amine trifluoroacetate] | – |
| – | 94 | Nc1ncc(-c2cc3ccccc3o2)c2cc(O[C@H]3CC[C@H](N)CC3)cc(Cl)c12 [Example 320] | – |
